Assay results published in patent US20240166624A1, “PPARG INVERSE AGONISTS AND USES THEREOF” (Flare Therapeutics Inc., priority 2021, published 2024).

How the values were obtained:
[1] = biological target: T1, PPARG/RXRA LBD heterodimer (Homo sapiens, UniProt P37231); assay: PPARγ-NCOR1 recruitment assay (TR-FRET, biotinylated NCOR1 ID2 peptide); type: biochemical; details: 80 nM Rosiglitazone, 3 hours, read-out: PPARG-NCOR recruitment assay EC50
T1 construct: His-TEV-Q203-Y477; Uniprot ID P37231-2; made in house; host or cells: E. coli
Method in brief: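 2 nM each of E. coli-expressed PPARG LBD (Q203-Y477) and RXRA LBD (WT or S427F, E228-T462) with biotinylated NCOR1 ID2 peptide, incubated 3 h; TR-FRET read at Ex/Em 615/665. Ratios normalized to DMSO (0%) and T0070907 maximum (100%) for EC50 and maximal recruitment.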
T1 sequence (O75376 2251-2273 partner, one chain of several): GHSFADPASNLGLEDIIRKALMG

[2] = biological target: T2, PPARG/RXRA LBD heterodimer (Homo sapiens, UniProt P37231); assay: PPARγ-MED1 blockade assay (TR-FRET, biotinylated MED1 LxxLL peptide); type: biochemical; details: WT PPARG LBD/WT RXRA LBD, 80 nM Rosiglitazone, 3 hours
T2 construct: His-TEV-Q203-Y477; Uniprot ID P37231-2; made in house; host or cells: E. coli
T2 sequence (P37231 203-477 isoform P37231-2): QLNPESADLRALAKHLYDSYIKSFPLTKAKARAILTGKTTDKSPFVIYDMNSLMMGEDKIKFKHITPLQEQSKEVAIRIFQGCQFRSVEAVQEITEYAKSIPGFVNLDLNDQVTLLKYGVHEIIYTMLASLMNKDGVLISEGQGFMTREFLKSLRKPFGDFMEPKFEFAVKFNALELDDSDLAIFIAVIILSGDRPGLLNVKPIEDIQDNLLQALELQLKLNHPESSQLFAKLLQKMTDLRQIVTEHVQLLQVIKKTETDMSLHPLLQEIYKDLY
T2 sequence (P19793 228-462 partner limits assumed): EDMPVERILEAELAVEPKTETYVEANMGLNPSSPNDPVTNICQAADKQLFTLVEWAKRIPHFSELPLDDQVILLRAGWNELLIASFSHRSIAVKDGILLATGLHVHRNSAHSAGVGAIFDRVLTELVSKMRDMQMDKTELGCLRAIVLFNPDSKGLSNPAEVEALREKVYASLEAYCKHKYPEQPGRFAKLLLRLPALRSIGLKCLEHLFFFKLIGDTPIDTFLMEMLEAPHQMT
Method in brief: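 TR-FRET measuring biotinylated MED1 LxxLL peptide association with 2 nM each His-PPARG LBD (Q203-Y477) and Flag-RXRA LBD (E228-T462), E. coli expressed. Read after 3 h incubation; ratios normalized to DMSO (0%) and GW9662 minimum (100%) for IC50 and maximal MED1 repulsion.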

[3] = system: FABP4, a PPARG target gene, in 5637 (PPARG amplified) cells; assay: Bladder cancer pharmacodynamic assay, 5637 cell assay (qPCR of FABP4); type: cell-based; details: 5637 cells, 24 hours, 100 nM compound, relative to DMSO control
Protocol: Bladder Cancer Pharmacodynamic Assay
5637 (PPARG amplified) and HT1197 (RXRA S427F mutation) cells were used for assessment of modulation of PPARG target genes using quantitative PCR. Cells were treated for 24 hours with PPARG inverse agonists prior to analysis of FABP4 (IDT, Cat: Hs.PT 58.20106818) and ANGPTL4 (IDT, Cat: Hs.PT 58.25480012) expression, with expression of the housekeeping gene TBP (IDT, Cat: Hs.PT 58v.39858774) used to normalize expression across samples. Quantitative PCR was performed using an ABI QuantStudio 7 Flex Reaction system. Data were analyzed and reported relative to DMSO control using the comparative Ct method (ΔΔCt).

[4] = system: ANGPTL4, a PPARG target gene, in HT1197 (RXRA S427F mutation) cells; assay: Bladder cancer pharmacodynamic assay, HT1197 cell assay (qPCR of ANGPTL4); type: cell-based; details: Homo sapiens, 24 hours; for inhibition at 0.1 µM: 100 nM compound, relative to DMSO control
Method in brief: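 5637 (PPARG amplified) and HT1197 (RXRA S427F) cells treated 24 h with PPARG inverse agonists. FABP4 and ANGPTL4 expression measured by qPCR, normalised to TBP, and reported relative to DMSO control by ΔΔCt.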

Compound: N#Cc1ccc(Cl)c(-c2cc(=O)c3c(F)cc(F)cc3[nH]2)c1 [Example 1, 4-chloro-3-(5,7-difluoro-4-oxo-1,4-dihydroquinolin-2-yl)benzonitrile]
- EC50 [1]: 0.1 to 1 µM
- EC50 [2]: 0.1 to 1 µM
- inhibition at 0.1 µM [3]: 95%
- inhibition at 0.1 µM [4]: 88%
- EC50 ([4]; ANGPTL4 expression): 0.005 µM

Compound: N#Cc1ccc(Cl)c(-c2cc(=O)c3cc(Cl)c(Cl)cc3[nH]2)c1 [Example 2, 4-chloro-3-(6,7-dichloro-4-oxo-1,4-dihydroquinolin-2-yl)benzonitrile]
- EC50 [1]: 0.1 to 1 µM
- EC50 [2]: 0.1 to 1 µM
- inhibition at 0.1 µM [3]: 93%
- inhibition at 0.1 µM [4]: 83%

Compound: N#Cc1ccc(Br)c(-c2cc(=O)c3c(F)cc(F)cc3[nH]2)c1 [Example 4, 4-bromo-3-(5,7-difluoro-4-oxo-1,4-dihydroquinolin-2-yl)benzonitrile]
- EC50 [1]: 0.01 to 0.1 µM
- EC50 [2]: 0.01 to 0.1 µM
- inhibition at 0.1 µM [3]: 94%
- inhibition at 0.1 µM [4]: 90%

Compound: N#Cc1ccc(Cl)c(-c2cc(=O)c3cc(F)c(F)cc3[nH]2)c1 [Example 5, 4-chloro-3-(6,7-difluoro-4-oxo-1H-quinolin-2-yl)benzonitrile]
- EC50 [1]: 1 to 10 µM
- EC50 [2]: 1 to 10 µM
- inhibition at 0.1 µM [3]: 90%
- inhibition at 0.1 µM [4]: 86%

Compound: N#Cc1ccc(Br)c(-c2cc(=O)c3cc(F)c(F)cc3[nH]2)c1 [Example 6, 4-bromo-3-(6,7-difluoro-4-oxo-1,4-dihydroquinolin-2-yl)benzonitrile]
- EC50 [1]: 0.1 to 1 µM
- EC50 [2]: 0.1 to 1 µM
- inhibition at 0.1 µM [3]: 93%

Compound: N#Cc1ccc(Cl)c(-c2cc(=O)c3c(F)c(-c4ccc(C(F)(F)F)cc4)c(F)cc3[nH]2)c1 [Example 11, 4-chloro-3-(5,7-difluoro-4-oxo-6-(4-(trifluoromethyl)phenyl)-1,4-dihydroquinolin-2-yl)benzonitrile]
- EC50 [1]: 0.01 to 0.1 µM
- EC50 [2]: 0.1 to 1 µM
- inhibition at 0.1 µM [3]: 94%
- inhibition at 0.1 µM [4]: 88%

Compound: CN1CCN(c2cc3c(=O)cc(-c4cc(C#N)ccc4Cl)[nH]c3cc2Cl)CC1 [Example 105, 4-chloro-3-(7-chloro-6-(4-methylpiperazin-1-yl)-4-oxo-1,4-dihydroquinolin-2-yl)benzonitrile]
- EC50 [1]: 1 to 10 µM
- EC50 [2]: 1 to 10 µM
- inhibition at 0.1 µM [4]: 60%

Compound: CO[C@@H]1CCN(c2c(F)cc3[nH]c(-c4cc(C#N)ccc4Cl)cc(=O)c3c2F)C1 [Example 106, (R)-4-chloro-3-(5,7-difluoro-6-(3-methoxypyrrolidin-1-yl)-4-oxo-1,4-dihydroquinolin-2-yl)benzonitrile]
- EC50 [1]: 0.1 to 1 µM
- EC50 [2]: 0.1 to 1 µM
- inhibition at 0.1 µM [4]: 75%

Compound: N#Cc1ccc(Cl)c(-c2cc(=O)c3c(F)c(N4CCOCC4)c(F)cc3[nH]2)c1 [Example 107, 4-chloro-3-(5,7-difluoro-6-morpholino-4-oxo-1,4-dihydroquinolin-2-yl)benzonitrile]
- EC50 [1]: 0.1 to 1 µM
- EC50 [2]: 0.1 to 1 µM
- inhibition at 0.1 µM [4]: 80%

Compound: CN(C)[C@H]1CCN(c2c(F)cc3[nH]c(-c4cc(C#N)ccc4Cl)cc(=O)c3c2F)C1 [Example 108, (S)-4-chloro-3-(6-(3-(dimethylamino)pyrrolidin-1-yl)-5,7-difluoro-4-oxo-1,4-dihydroquinolin-2-yl)benzonitrile]
- EC50 [1]: 1 to 10 µM
- EC50 [2]: 1 to 10 µM
- inhibition at 0.1 µM [4]: 65%

Compound: CN(C)[C@@H]1CCN(c2c(F)cc3[nH]c(-c4cc(C#N)ccc4Cl)cc(=O)c3c2F)C1 [Example 109, (R)-4-chloro-3-(6-(3-(dimethylamino)pyrrolidin-1-yl)-5,7-difluoro-4-oxo-1,4-dihydroquinolin-2-yl)benzonitrile]
- EC50 [1]: 1 to 10 µM
- EC50 [2]: 1 to 10 µM
- inhibition at 0.1 µM [4]: 65%

Compound: N#Cc1ccc(Cl)c(-c2cc(=O)c3c(F)c(N4CCS(=O)(=O)CC4)c(F)cc3[nH]2)c1 [Example 110, 4-chloro-3-(6-(1,1-dioxidothiomorpholino)-5,7-difluoro-4-oxo-1,4-dihydroquinolin-2-yl)benzonitrile]
- EC50 [1]: 1 to 10 µM
- EC50 [2]: 1 to 10 µM
- inhibition at 0.1 µM [4]: 37%

Compound: CN1CCN(c2c(F)cc3[nH]c(-c4cc(C#N)ccc4Cl)cc(=O)c3c2F)CC1=O [Example 111, 4-chloro-3-(5,7-difluoro-6-(4-methyl-3-oxopiperazin-1-yl)-4-oxo-1,4-dihydroquinolin-2-yl)benzonitrile]
- EC50 [1]: 1 to 10 µM
- EC50 [2]: 1 to 10 µM
- inhibition at 0.1 µM [4]: 43%

Compound: CN(C)C(=O)C1CCN(c2c(F)cc3[nH]c(-c4cc(C#N)ccc4Cl)cc(=O)c3c2F)CC1 [Example 112, 1-(2-(2-chloro-5-cyanophenyl)-5,7-difluoro-4-oxo-1,4-dihydroquinolin-6-yl)-N,N-dimethylpiperidine-4-carboxamide]
- EC50 [1]: 1 to 10 µM
- EC50 [2]: 1 to 10 µM
- inhibition at 0.1 µM [4]: 66%

Compound: CN(C)C(=O)N1CCN(c2c(F)cc3[nH]c(-c4cc(C#N)ccc4Cl)cc(=O)c3c2F)CC1 [Example 113, 4-(2-(2-chloro-5-cyanophenyl)-5,7-difluoro-4-oxo-1,4-dihydroquinolin-6-yl)-N,N-dimethylpiperazine-1-carboxamide]
- EC50 [1]: 1 to 10 µM
- EC50 [2]: 1 to 10 µM
- inhibition at 0.1 µM [4]: 80%

Compound: CN(C)C(=O)[C@@H]1CCCN(c2c(F)cc3[nH]c(-c4cc(C#N)ccc4Cl)cc(=O)c3c2F)C1 [Example 114, (R)-1-(2-(2-chloro-5-cyanophenyl)-5,7-difluoro-4-oxo-1,4-dihydroquinolin-6-yl)-N,N-dimethylpiperidine-3-carboxamide]
- EC50 [1]: 0.1 to 1 µM
- EC50 [2]: 0.1 to 1 µM
- inhibition at 0.1 µM [4]: 60%

Compound: CN(C)C(=O)[C@H]1CCCN(c2c(F)cc3[nH]c(-c4cc(C#N)ccc4Cl)cc(=O)c3c2F)C1 [Example 115, (S)-1-(2-(2-chloro-5-cyanophenyl)-5,7-difluoro-4-oxo-1,4-dihydroquinolin-6-yl)-N,N-dimethylpiperidine-3-carboxamide]
- EC50 [1]: 0.1 to 1 µM
- EC50 [2]: 1 to 10 µM
- inhibition at 0.1 µM [4]: 80%

Compound: CN(C)C(=O)[C@@H]1CCN(c2c(F)cc3[nH]c(-c4cc(C#N)ccc4Cl)cc(=O)c3c2F)C1 [Example 116, (R)-1-(2-(2-chloro-5-cyanophenyl)-5,7-difluoro-4-oxo-1,4-dihydroquinolin-6-yl)-N,N-dimethylpyrrolidine-3-carboxamide]
- EC50 [1]: 0.1 to 1 µM
- EC50 [2]: 1 to 10 µM
- inhibition at 0.1 µM [4]: 84%

Compound: CN(C)C(=O)[C@H]1CCN(c2c(F)cc3[nH]c(-c4cc(C#N)ccc4Cl)cc(=O)c3c2F)C1 [Example 117, (S)-1-(2-(2-chloro-5-cyanophenyl)-5,7-difluoro-4-oxo-1,4-dihydroquinolin-6-yl)-N,N-dimethylpyrrolidine-3-carboxamide]
- EC50 [1]: 1 to 10 µM
- EC50 [2]: 1 to 10 µM
- inhibition at 0.1 µM [4]: 79%
